Assay results published in PMC5610524, “Tools for the Individualized Therapy of Teicoplanin for Neonates and Children” (Antimicrobial Agents and Chemotherapy, 2017).

Legend:
[1] = Nonparametric population PK model (two-compartment, allometric, renal function) fitted to plasma teicoplanin concentrations in neonates, infants and children; format: in vivo, human; details: final model
Excerpt: Pharmacokinetic data from 57 children (39 children aged 1 month to 16 years old and 18 neonates with a postmenstrual age [PMA] between 26 and 44 weeks) were available for model building. Patients were prospectively enrolled from two different hospitals in Liverpool (Alder Hey NHS Children's Foundation Trust and Liverpool Women's Hospital) over a 21-month period (April 2013 and January 2015). These PK data have been reported previously in two separate population models ([1], [2]). […] Such an approach avoids the problem of having multiple pharmacokinetic models for the same drug, each with an arbitrarily chosen cutoff value for age or size.
Neonates with a PMA of ≤44 weeks received a loading dose of 16 mg/kg, followed by 8 mg/kg once daily via a 30-min intravenous (i.v.) infusion. Children >1 month old received three loading dosages of 10 mg/kg every 12 h, followed by 10 mg/kg once daily via an i.v. bolus infusion (2 to 5 min), according to the dosages currently recommended by the SPC ([11]). Plasma samples were collected during the first dosage interval and then at steady state (1, 3, 6, and 24 h postdose) on days 3 to 7 of therapy. Neonates weighing <1,000 g contributed two samples per dosing interval because of constraints on sample volume. The duration of the treatment course was at the discretion of the treating physician. All patients received teicoplanin for proven or suspected methicillin-resistant staphylococcal sepsis (due to either coagulase-negative staphylococci [CoNS] or MRSA) and/or central-line-associated bloodstream infection. Demographic variables included weight, height, age in years, PMA in weeks, postnatal age (PNA) in days, serum albumin concentration (in grams per liter), and serum creatinine concentration. The estimated glomerular filtration rate (eGFR) (Schwartz-Haycock) ([28]) was also available for each patient.
Teicoplanin concentrations were measured using a commercially available fluorescence polarization immunoassay (FPIA; Thermo Fisher Scientific, Germany). The limit of quantification (LOQ) was <3.0 mg/liter. The dynamic range was 3 to 100 mg/liter, and overall precision (intra- and interday variability) was <6%.
A PK model was fitted to the data using Pmetrics, version 1.4.2 for R, statistical package 3.2.2, which utilizes the nonparametric adaptive grid (NPAG) algorithm ([29]). The inverse of the estimated assay variance was used to weight the data. Initially, a standard two-compartment model with time-delimited zero-order i.v. input and first-order elimination from the central compartment was developed. The standard model is described by differential equations 1a and 1b below: (1a) dX(1)/dt=R(1)−(Kcp+Cl/V)⋅X(1)+[Kpc⋅X(2)] (1b) dX(2)/dt=Kcp⋅X(1)−Kpc⋅X(2) where X(1) and X(2) represent the amounts of teicoplanin (in milligrams) in the central (c) and peripheral (p) compartments, respectively; R(1) is the rate of infusion of the drug into the central compartment (in milligrams per hour); clearance (Cl) from the central compartment is measured in liters per hour; volume (V) is measured in liters; and the central and peripheral compartments are connected by the first-order rate constants Kcp and Kpc (measured per hour).
In neonates and children, clearance generally scales with size in a nonlinear manner that is best described using a power function. A scaling exponent of 0.75 is most frequently used (i.e., clearance is proportional to weight^0.75). In addition, physiological maturation may also affect clearance, and this is especially important for neonates and young infants ([30], [31]). In the model-building process, we switched from using clearance to using Ke (measured per hour) as the first-order elimination rate constant, where Ke is calculated as Cl/V and is proportional to weight^−0.25. While it is possible to estimate the scaling exponents directly, we chose to fix these values as previously described by others ([24], [30], [31]). […]

[2] = BestDose multiple-model Bayesian adaptive dose optimization software, individual simulations for an infant and an older child; parameters: species or system human; details: trapezoidal approximation to hourly software predictions
Excerpt: We incorporated the final population PK model into a teicoplanin multiple-model Bayesian adaptive dosing controller (the software “cartridge”). The controller is based on the concepts and software (BestDose) developed by the University of Southern California Laboratory for Applied Pharmacokinetics and Bioinformatics (LAPKB) (http://www.lapk.org) ([35], [36]). The teicoplanin cartridge included the final structural model equations relating input (dosing information) to output (concentrations of the drug in plasma) and the discrete joint probability distribution of the values of the equation variables (PK parameters) in the population, consisting of a discrete number of support points and their associated probabilities (the Bayesian prior). […]
The dose optimization software was tested by comparing the estimated predicted PK profile plot against the observations, as well as by the linear regression of the observed-versus-predicted concentrations for each individual patient. From the predicted concentrations based on the median individual Bayesian posterior parameter distribution, we calculated the bias, which is equal to the mean weighted predicted error (∑ wpe/N), where wpe is (predicted concentration − actual concentration)/(SD for each prediction/observation), N is the number of observations, and the percentage of bias. […]

V01, weight-standardized volume of the central compartment (V0), mean ([1]; n = 57, occasion 1 (<96 h), Volume = V0 · (wt/70), population mean): 22.636 L
V01, weight-standardized volume of the central compartment (V0), median ([1]; n = 57, occasion 1 (<96 h), Volume = V0 · (wt/70), population median): 19.52 L
Ke01, weight-standardized elimination rate constant (Ke0), median ([1]; n = 57, occasion 1 (<96 h), standardized to 70 kg, Ke = Ke0 · (wt/70)^−0.25 · Renal, population median): 0.03 h⁻¹
Ke02, weight-standardized elimination rate constant (Ke0), mean ([1]; n = 57, occasion 2 (samples ≥96 h), standardized to 70 kg, population mean): 0.036 h⁻¹
V02, weight-standardized volume of the central compartment (V0), mean ([1]; n = 57, occasion 2 (≥96 h), Volume = V0 · (wt/70), population mean): 22.472 L
V02, weight-standardized volume of the central compartment (V0), median ([1]; n = 57, occasion 2 (≥96 h), Volume = V0 · (wt/70), population median): 22.7 L
Ke02, weight-standardized elimination rate constant (Ke0), median ([1]; n = 57, occasion 2 (≥96 h), standardized to 70 kg, population median): 0.025 h⁻¹
pw, power function (Renal = eGFR^pw), mean ([1]; n = 57, patients >3 months old, population mean): 0.125
pw, power function (Renal = eGFR^pw), median ([1]; n = 57, patients >3 months old, population median): 0.07
Kcp, first-order intercompartmental rate constant, mean ([1]; n = 57, population mean): 0.490 h⁻¹
Kpc, first-order intercompartmental rate constant, mean ([1]; n = 57, population mean): 0.214 h⁻¹
Kcp, first-order intercompartmental rate constant, median ([1]; n = 57, population median): 0.23 h⁻¹
Kpc, first-order intercompartmental rate constant, median ([1]; n = 57, population median): 0.12 h⁻¹
Ke01, weight-standardized elimination rate constant (Ke0), mean ([1]; n = 57 neonates and children, i.v., occasion 1 (samples <96 h after treatment initiation), standardized to 70 kg, Ke = Ke0 · (wt/70)^−0.25 · Renal, population mean): 0.038 h⁻¹
Median (range) 24-h AUC along the treatment course ([2]; Patient 1 (infant, 5 months, 6.3 kg, eGFR 63.84 ml/min/1.73 m^2)): 493.8 (355.8–574) mg · h/liter
Median (range) 24-h AUC along the treatment course ([2]; Patient 2 (child, 16.3 kg, eGFR 108.41 ml/min/1.73 m^2)): 368.1 (318.9–388.4) mg · h/liter
Substance: teicoplanin
